Drawing on PubChem BioAssay (NCI), this text covers GI50 and TGI for seven compounds.

Each structure is given as a SMILES string. Values joined by “and” are separate entries in the source; they are usually repeats but may differ in a detail not shown here. Equal values may be shown once.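 The compound was tested at five concentrations on cells cultured in 96-well plates, with a 48-hour exposure period. GI50 marks 50% less growth. At the TGI there is no net growth.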 Some results are limits rather than exact numbers.

What all share (assay): inhibition of tumour cell growth, NCI panel, 48 h
For test [1], the system named is UO-31 renal.
Test [2] has as its system HCT-15 colon.
Test [3] has as its system MDA-MB-435.
Test [4] relates to EKVX NSCLC.
In test [5] the test system is OVCAR-5 ovarian.
The test system of test [6] is HOP-62 NSCLC.
For test [7], the system named is DU-145 prostate.
For test [8], the system named is A549 NSCLC.
The test system of test [9] is SF-539 CNS.
Test [10] concerns RXF 393 renal.

For `Nc1nc(N)c2c(n1)NC(c1ccc(Cl)cc1)C1CCc3ccccc3C1=N2` (stereo not given), the GI50 is 3.63 µM in test [1]; 4.16 µM in test [2]; 4.72 µM in test [3]; 3.62 µM in [4]; 14.9 µM in test [5]; 11.5 µM in test [6]. In addition, the GI50 in [7] was 11.2 µM; in test [8], 11.8 µM; in [9] it was 6.17 µM; in test [10], 4.68 µM. Also, the TGI in test [1] turned out to be 17.4 µM; in test [2] it was 18.5 µM; in test [3], 19.6 µM; in test [4], 21 µM; in test [5], 28.1 µM; in test [6] it was 23.7 µM. In addition, the TGI in test [7] is 23.3 µM; in test [8], 25 µM; in test [9] it was 19.6 µM; in test [10], 19.1 µM.
In the case of `[N-]=[N+]=NCCCn1c2c(c3ccccc3c1=O)C(=O)c1cc3c(cc1-2)OCO3`, the GI50 was > 100 µM in test [1]; > 100 µM in test [2]; > 100 µM in test [3]; > 100 µM in test [4]; > 100 µM in test [5]; 17.6 µM in test [6]. Also, the GI50 in test [7] is 76 µM; in test [8], > 100 µM; in test [9], 20.9 µM; in test [10] it was > 100 µM. The TGI in [1], in test [2], in test [3], in [4], in test [5] and in test [6] was > 100 µM throughout. Moreover, the TGI in test [7], in test [8], in test [9] and in [10] was > 100 µM throughout.
In the case of `CN1c2cccc[c]2[Sn]([CH3])([CH3])[c]2ccccc21`, the GI50 in [1] was 0.0374 µM; in test [2] it was < 0.0125 µM; in test [3], < 0.01 µM; in test [4] it was < 0.01 µM; in test [5], < 0.0115 µM; in [6], < 0.0137 µM. For the same compound, the GI50 in [7] is < 0.0131 µM; in test [8], < 0.0132 µM; in [9], < 0.011 µM; in test [10] it was 0.0279 µM. Also, the TGI was 0.182 µM in test [1]; 0.116 µM in test [2]; 0.0291 µM in test [3]; < 0.0249 µM in test [4]; 0.264 µM in test [5]; 0.0714 µM in [6]. In addition, the TGI was found to be 0.0988 µM in test [7], 0.0932 µM in [8], 0.0473 µM in [9] and 0.202 µM in test [10].
As for `COc1cc(N2CCN(C(C)C)CC2)ccc1Nc1nc(Nc2ccc(F)cc2C(N)=O)c2cc[nH]c2n1`, the GI50 in [1] was 0.996 µM; in [2] it was 0.387 µM; in test [3] it was 0.242 µM; in test [4], 0.48 µM; in [5], 0.245 µM; in [6], 0.668 µM. Moreover, the GI50 is 0.234 µM in [7], 0.121 µM in [8], 2.76 µM in test [9] and 0.857 µM in test [10]. Also, the TGI in test [1] worked out at 5.28 µM; in test [2], 8.16 µM; in test [3] it was 5.45 µM; in test [4], 7.19 µM; in test [5] it was 6.27 µM; in test [6], 5.26 µM. Moreover, the TGI in test [7] turned out to be 4.63 µM; in [8], 4.17 µM; in [9], 6.33 µM; in [10], 5.27 µM.
As for `Cn1cc(-c2[nH]c3cc(NC(=O)[C@H](N)C4CCCCC4)cc4c3c2C=NNC4=O)cn1`, the GI50 was 2.54 µM and 2.35 µM in [1]; 12 µM and 5.1 µM in test [2]; 0.245 µM and 0.286 µM in test [3]; 6.83 µM and 5.99 µM in test [4]; 1.28 µM and 0.644 µM in test [5]; 0.401 µM and 0.343 µM in [6]. Besides, the GI50 in test [7] is 0.508 µM and 0.528 µM; in test [8], 3.63 µM and 3.85 µM; in test [9], 0.118 µM and 0.109 µM; in test [10], 0.104 µM and 0.187 µM. In addition, the TGI in test [1] was 9.07 µM and > 10 µM; in test [2], > 72 µM; in [3] it was 1.23 µM and 1.28 µM; in test [4], 21.8 µM and > 10 µM; in test [5], 15.8 µM and > 10 µM; in [6] it was 12.3 µM and > 10 µM. Besides, the TGI in [7] is 19.8 µM and > 10 µM; in [8] it was 16.9 µM and > 10 µM; in [9], 0.67 µM and 0.628 µM; in test [10], 0.502 µM and 0.745 µM.
As to `C=C1C(=O)O[C@H]2[C@H]1CC/C(COC(=O)NCCc1ccc(Br)cc1)=C\CC[C@@]1(C)O[C@@H]21`, the GI50 was 1.55 µM in [1]; 1.01 µM in test [2]; 1.28 µM in test [3]; 1.54 µM in test [4]; 1.96 µM in [5]; 1.99 µM in test [6]. Besides, the GI50 in test [7] is 0.771 µM; in test [8], 2.59 µM; in test [9], 1.46 µM; in test [10], 1.2 µM. In addition, the TGI in [1] is 2.95 µM; in test [2], 2.33 µM; in [3], 2.81 µM; in test [4], 3.29 µM; in [5], 4.47 µM; in test [6], 4.4 µM. Moreover, the TGI in [7] is 2.04 µM; in test [8] it was 6.17 µM; in [9] it was 2.88 µM; in test [10], 2.68 µM.
As for `Clc1ccc(Nc2nnc(COc3ccccc3)c3ccccc23)cc1`, the GI50 in test [1] was 0.727 µM; in test [2], 2.05 µM; in test [3] it was 1.01 µM; in test [4], 0.679 µM; in [5], 3.88 µM; in test [6], 2.51 µM. Further, the GI50 was 2.65 µM in test [7], 2.87 µM in test [8], 3.12 µM in test [9] and 1.01 µM in test [10]. Further, the TGI in [1] was 5.2 µM; in test [2], 6.75 µM; in [3] it was 5.31 µM; in test [4], 7.32 µM; in [5], 15.4 µM; in [6], 7.74 µM. For the same compound, the TGI was 10.5 µM in test [7], 12.3 µM in [8], 7.58 µM in test [9] and 4.98 µM in test [10].
